Experimental data from US5656460A, “α-glycosyl derivative of the catecholamine or its salt, and its preparation and uses” (Kabushiki Kaisha Hayashibara Seibutsu Kagaku Kenkyujo, priority 1992, dated 1997).

Columns and labels:
[1] = Solubility in solvent; type: physicochemical
[2] = Reducing reaction by the Nelson-Somogyi's method; type: physicochemical
From the text: The α-glucosyl methyldopa preparations [I] and [II] turn green on the anthrone-sulfuric acid reaction. The preparations are negative on a reducing reaction by the Nelson-Somogy's method;

[3] = tested on: α-glucosidase (EC 3.2.1.20); assay: Stability against hydrolysis by α-glucosidase; type: in vitro ADME, pig; conditions: forms the catecholamine (methyldopa) and D-glucose
From the text: (6) Stability against hydrolysis (a) The α-glucosyl methyldopa preparations [I] and [II] are hydrolyzed by α-glucosidase (EC 3.2.1.20) specimen derived from pig liver to form methyldopa and D-glucose;

[4] = tested on: β-glucosidase; assay: Stability against hydrolysis by β-glucosidase; type: in vitro ADME
From the text: (6) Stability against hydrolysis

[5] = Stability in aqueous solution (coloring degree at 400 nm relating to oxidation); type: physicochemical; conditions: 100 mM phosphate buffer pH 8.0, 25° C.; for Stability compared with intact methyldopa: up to 9 days; for Coloring degree at 400 nm: 100 ppm
Protocol: Fifty ml aliquots of 100 mM phosphate buffer (pH 8.0) were distributed into 50 ml-flasks, added with the α-glucosyl methyldopa preparation [I] or [II] to give a concentration of 100 ppm, allowed to stand at 25° C., and sampled at a prescribed time interval to determine the stability of the preparation.
Intact methyldopa was used as a control. Five ml solution was collected from each flask at a prescribed time interval, and subjected to the measurement of the coloring degree at 400 nm relating to the oxidation of methyldopa.

[6] = tested on: 7-week-old dd mice; assay: Acute toxicity test (oral, mice); type: in vivo
Protocol: The α-glucosyl methyldopa preparations [I] and [II] were tested for their acute toxicity by orally administering them to 7-week-old dd mice.

CC(N)(Cc1ccc(O[C@H]2O[C@H](CO)[C@@H](O)[C@H](O)[C@H]2O)c(O)c1)C(=O)O (stereo partly drawn) [α-glucosyl methyldopa preparation [II], 3-[3-hydroxy-(4-α-D-glucopyranosyl)]-2-methylalanine]
Solubility in benzen [1]: insoluble
Solubility in chloroform [1]: insoluble
Solubility in ethanol [1]: slightly soluble
Solubility in ether [1]: insoluble
Solubility in methanol [1]: slightly soluble
Solubility in water [1]: readily soluble
Reducing reaction / reducing activity [2]: negative
Hydrolysis by α-glucosidase [3]: hydrolyzed
Hydrolysis by β-glucosidase [4]: not hydrolyzed
Stability compared with intact methyldopa [5]: much stabler than intact methyldopa
Coloring degree at 400 nm ([5]; day 0): 0.0
Coloring degree at 400 nm ([5]; day 1): 0.0
Coloring degree at 400 nm ([5]; day 3): 0.0
Coloring degree at 400 nm ([5]; day 5): 0.0
Coloring degree at 400 nm ([5]; day 9): 0.0
Acute toxicity: dose up to which no mouse died [6]: ≥ 5000 mg/kg

CC(N)(Cc1ccc(O)c(O[C@H]2O[C@H](CO)[C@@H](O)[C@H](O)[C@H]2O)c1)C(=O)O (stereo partly drawn) [α-glucosyl methyldopa preparation [I], 3-[4-hydroxy-(3-α-D-glucopyranosyl)]-2-methylalanine]
Solubility in benzen [1]: insoluble
Solubility in chloroform [1]: insoluble
Solubility in ethanol [1]: slightly soluble
Solubility in ether [1]: insoluble
Solubility in methanol [1]: slightly soluble
Solubility in water [1]: readily soluble
Reducing reaction / reducing activity [2]: negative
Hydrolysis by α-glucosidase [3]: hydrolyzed
Hydrolysis by β-glucosidase [4]: not hydrolyzed
Stability compared with intact methyldopa [5]: much stabler than intact methyldopa
Coloring degree at 400 nm ([5]; day 0): 0.0
Coloring degree at 400 nm ([5]; day 1): 0.0
Coloring degree at 400 nm ([5]; day 3): 0.0
Coloring degree at 400 nm ([5]; day 5): 0.0
Coloring degree at 400 nm ([5]; day 9): 0.0
Acute toxicity: dose up to which no mouse died [6]: ≥ 5000 mg/kg
